Measurements: US20060121449A1, “Method for selection of compounds which inhibit clonal cell growth and use thereof” (priority 2002, published 2006)
“Also recorded” adds a separate entry of the source. Like-named read-outs stand apart in the source and are kept apart here.

Assays:
[1] = tested on: polyoma virus transformed BHK21/c13 cells, line S100T1; assay: Collocation inhibition test: clonal growth in sparsely and densely seeded areas of a cell density gradient of S100T1 cells in soft agar (Exp 13, 17, 19-26); details: supposed, if used in cancer treatment;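 also: soft agar cultures in 24-well plates with a cell density gradient in the top layer, compounds applied from DMSO stocks, clonal growth scored in sparse versus dense areas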
Ehrlich ascites tumour = details: for Section day 17: ascites: control 6.8 ml
Experimental: Tumour cells harvested from ascitic mouse were mainly solitary.
The experiment describes transplantation of the malignant mouse Ehrlich ascites tumour to two adult male mice (NMRI/Bom). Each of them received 100000 cells intraperitonally. One mouse was treated two times a week with 4-OH-OPB intraperitonally.
Cells were injected 90 minutes after the addition of 4-OH-OPB to the suspension. The control received the same cell suspension without 4-OH-OPB.
At the same time, dilutions of 4-OH-OPB were injected intraperitonally to the transplanted mice in order to find the smallest active dose.
The cells from ascites in the untreated control mouse was frozen on serum with 10% DMSO. The cells were thawed in water of 37° C., diluted in serum, and pelleted by low speed centrifugation after the addition of 2 ml FBS, to remove DMSO.
Each animal received such cells suspended in portions of 1 ml in RPMI (pH˜6.9).
The frozen and thawed Ehrlich ascites cells are diluted in a volume of 1 ml RPMI (pH˜6.9) for each animal. No calf serum was added to the medium to avoid immunisation of the mice.
Cell number: 90000 tumour cells in 0.7 ml RPMI were injected intraperitonally to each animal.
The total cell number in the ampoule was 7.5 million cells. The cells were thawed, and 2 ml FBS was added before low speed centrifugation. […] Than separate vessels were prepared for each animal. The cell tube for animal number 3 received Colchicine as indicated in the table on day 0 one hour before the cells were injected.
After mixing the same volume was transferred from this tube to the last tube.
The content of the last two tubes was injected intraperitonally to each of the mice number 1 and 2 respectively.

[2] = Exp 7, 1.62 μl 20 mM i.p. two times a week, 45.5 at day 0
[3] = Exp 8 mouse 1: 1.26 μl 20 mM i.p. from day 0 (42 μM i.p.)
[4] = Exp 8 mouse 2: 0.42 μl 20 mM i.p. from day 0 (14 μM i.p.)
[5] = Exp 8 mouse 3: 0.14 μl 20 mM i.p. from day 0 (4.7 μM i.p.)
[6] = Exp 8 mouse 4: 0.047 μl 20 mM i.p. from day 0 (1.6 μM i.p.)
[7] = Exp 8 mouse 4: 0.047 μl 20 mM i.p. from day 0 (1.6 μM i.p.), listed as 4-OH—OPB
[8] = Exp 8 mouse 6: 1.13 μl 20 mM i.p., first injection 24 h after tumour (37.7 μM i.p.)
[9] = Exp 8 mouse 6: 1.13 μl 20 mM i.p., first injection 24 h after tumour (37.7 μM i.p.), listed as 4-OH—OPB
[10] = Exp 8 mouse 7: 1.09 μl 20 mM i.p., first injection 3 days after tumour

CCCCC1(O)C(=O)N(c2ccccc2)N(c2ccc(O)cc2)C1=O (centres unmarked) [4-OH-OPB, 4-butyl-4-hydroxy-2(p-hydroxyphenyl)-1-phenyl-3,5-pyrazolidinedione]
Tolerating long duration of treatment [1]: yes
Weight of treated mouse, day 14 (Ehrlich ascites tumour; [2]): 42.6 g
Weight of treated mouse, day 18 (Ehrlich ascites tumour; [2]): 44.3 g
Tumour findings in treated mouse after 19 days (Ehrlich ascites tumour; Exp 7, 1.62 μl 20 mM i.p. two times a week, 100000 Ehrlich cells i.p.): No tumour was detected; also recorded: completely normal without any palpable tumour or signs of ascites or anaemia; also recorded: no pathological signs; also recorded: no tumour or ascites observable
Ascites (Ehrlich ascites tumour; Exp 7 treated animal, day 19): 0 grams
Fibrinous material under diaphragm (Ehrlich ascites tumour; Exp 7 treated animal, day 19): 0 grams
Size of organs: Hart (Ehrlich ascites tumour; Exp 7 treated animal, day 19): 0.20 grams
Size of organs: Kidneys (Ehrlich ascites tumour; Exp 7 treated animal, day 19): 0.57 grams
Size of organs: Liver (Ehrlich ascites tumour; Exp 7 treated animal, day 19): 2.38 grams
Size of organs: Lungs (Ehrlich ascites tumour; Exp 7 treated animal, day 19): 0.3 grams
Size of organs: Omentum (Ehrlich ascites tumour; Exp 7 treated animal, day 19): 2.36 grams
Size of organs: Spleen (Ehrlich ascites tumour; Exp 7 treated animal, day 19): 0.184 grams
Tumour in groin (Ehrlich ascites tumour; Exp 7 treated animal, day 19): 0 grams
Dose that did not cure when begun the next day or 3 days after transplantation, relative to minimum curative dose (Ehrlich ascites tumour; Exp 8): about 9 times
Smallest effective dose, in extracellular fluid (Ehrlich ascites tumour; Exp 8): 0.37 µM
Start of treatment needed for complete rescue (Ehrlich ascites tumour; Exp 8): The treatment had to start immediately
Outcome when therapy started 24 hours after transplantation or later (Ehrlich ascites tumour; Exp 8, doses in abdomen of 36-38 μM): development of ascites or ascites with solid tumour in addition
Smallest effective (inhibiting) concentration in the peritoneum (Ehrlich ascites tumour; Exp 8, injected together with the cells and then twice a week): dose was 4.8 μM.
Day 15 status (Ehrlich ascites tumour; [3]): healthy
Day 15 weight (Ehrlich ascites tumour; [3]): 33.9 gram
Day 15 weight/initial weight (Ehrlich ascites tumour; [3]): 0.96
Result (tumour growth) (Ehrlich ascites tumour; [3]): No tumour
Section day 17 (Ehrlich ascites tumour; [3]): No pathology found, neither ascites nor solid tumours
Section day 17 (Ehrlich ascites tumour; Exp 8 mouse 1: 1.26 μl 20 mM i.p. from day 0 (42 μM i.p.), listed as 4-OH—OPB): healthy, no tumour
Day 15 status (Ehrlich ascites tumour; [4]): healthy
Day 15 weight (Ehrlich ascites tumour; [4]): 38.7 gram
Day 15 weight/initial weight (Ehrlich ascites tumour; [4]): 0.97
Section day 17 (Ehrlich ascites tumour; [4]): No pathology found, neither ascites nor solid tumours
Section day 17 (Ehrlich ascites tumour; Exp 8 mouse 2: 0.42 μl 20 mM i.p. from day 0 (14 μM i.p.), listed as 4-OH—OPB): healthy, no tumour
Day 15 status (Ehrlich ascites tumour; [5]): healthy
Day 15 weight (Ehrlich ascites tumour; [5]): 29.3 gram
Day 15 weight/initial weight (Ehrlich ascites tumour; [5]): 1.1
Section day 17 (Ehrlich ascites tumour; [5]): No pathology was found, neither ascites nor solid tumours
Section day 17 (Ehrlich ascites tumour; Exp 8 mouse 3: 0.14 μl 20 mM i.p. from day 0 (4.7 μM i.p.), listed as 4-OH—OPB): healthy, no tumour
Ascites relative to control (Ehrlich ascites tumour; [6]): Ascites (0.66 of contr.) + solid
Day 15 status (Ehrlich ascites tumour; [6]): Ascites
Day 15 weight (Ehrlich ascites tumour; [6]): 37.4 gram
Day 15 weight/initial weight (Ehrlich ascites tumour; [6]): 1.33
Result (tumour growth) (Ehrlich ascites tumour; [6]): Lens-sized tumour at injection site in left abdominal wall
Section day 17: ascites (Ehrlich ascites tumour; [6]): 4.5 mL
Section day 17: ascites (Ehrlich ascites tumour; [7]): 4.5 ml ascites
Result (tumour growth) (Ehrlich ascites tumour; [7]): Ascites (0.66 of contr.) + solid
Ascites relative to control (Ehrlich ascites tumour; [8]): Ascites (0.47 of contr.) + solid
Day 15 status (Ehrlich ascites tumour; [8]): Healthy
Day 15 weight (Ehrlich ascites tumour; [8]): 34.5 gram
Day 15 weight/initial weight (Ehrlich ascites tumour; [8]): 1.09
Result (tumour growth) (Ehrlich ascites tumour; [8]): At injection site circular branched tumour
Section day 17: ascites (Ehrlich ascites tumour; [8]): 3.15 mL
Section day 17: ascites (Ehrlich ascites tumour; [9]): 3.2 ml ascites, inj. site
Result (tumour growth) (Ehrlich ascites tumour; [9]): Ascites (0.47 of contr.) + solid
Tumour size, Day 8 (Ehrlich ascites tumour; [10]): Tumour = grain
Tumour size, Day 10 (Ehrlich ascites tumour; [10]): Tumour > grain
Ascites relative to control (Ehrlich ascites tumour; Exp 8 mouse 7: 1.09 μl 20 mM i.p., first injection 3 days after tumour (36.3 μM i.p.)): 0.00022 % of contr.
